In publication PMC10058949, “Effect of N-Terminal Peptide Modifications on In Vitro and In Vivo Properties of ^177Lu-Labeled Peptide Analogs Targeting CCK2R” (Pharmaceutics, 2023):

Experiments:
[1] = Octanol/PBS distribution coefficient (logD7.4); format: physicochemical; details: pH 7.4
Method: (§1) The stability studies with the ^177Lu-labeled peptide analogs were carried out at a concentration of 0.5 nmol peptide/mL in fresh human serum (n = 2) for up to 24 h. A mixture of 0.05 nmol/mL of the radiolabeled peptides in PBS and octanol (1/1, v/v) was used to evaluate the octanol/PBS distribution coefficient (logD7.4; n = 8). To determine the protein binding in human serum by Sephadex G-50 size-exclusion chromatography (GE Healthcare Illustra, Little Chalfont, UK), a 25 µL serum sample was used for different time points after incubation. All steps were performed according to previously published protocols.

human serum proteins = assay: Protein binding in human serum by Sephadex G-50 size-exclusion chromatography; format: in vitro ADME
Method: as §1

[2] = set-up: species or system human
From the text: Based on these preliminary studies, [^177Lu]Lu-2 was selected for further biodistribution studies evaluating the tumor uptake and tissue distribution for up to 7 days after injection. This study was approved by the Nijmegen Medical Center animal ethics committee (RUDEC) and the Dutch animal ethics committee (CCD) of the Radboud University (2020–0007-020). Female BALB/c nude mice were inoculated with A431-CCK2R cells at an age of 8–10 weeks (n = 20). When tumor xenografts were formed, mice were injected intravenously via a lateral tail vein with ~1 MBq of [^177Lu]Lu-2, corresponding to 20 pmol of peptide, in a total volume of 200 µL in PBS/0.5% BSA. For quantification, a 1% standard was used. […] All collected samples were weighed and measured in the γ-counter together with the standard. Results were expressed as percentage of injected activity per gram of tissue (%IA/g), and tumor-to-organ activity ratios were calculated for selected tissues. For dose-limiting organs, kidneys and stomach, dosimetry estimates were calculated using Olinda-EXM (version 2.2, Vanderbilt University) and standard weights for humans (male and female). For this purpose, the % IA/g determined in mice was extrapolated to humans using the following equation: % IA per organ in humans=[%IA/gin mice×mass of mice (kg)]×(mass of human organ (g)/total body mass of human (kg)) […]

logD [1]: -2.18 ± 0.38
change in binding to human serum proteins compared to [177Lu]Lu-DOTA-MGS5 (human serum proteins): 2-fold decrease
decrease in protein binding compared to [177Lu]Lu-DOTA-MGS5 (human serum proteins; human, serum): ~ 50%
cumulative absorbed radiation dose, kidneys [2]: < 5 Gy
cumulative absorbed radiation dose, stomach [2]: < 10 Gy
SMILES: CCCC[C@@H](C(=O)N[C@@H](CC(=O)O)C(=O)N[C@@H](Cc1cccc2ccccc12)C(N)=O)N(C)C(=O)[C@H](Cc1c[nH]c2ccccc12)NC(=O)CCNC(=O)CC(O)CNC(=O)CC(O)CNC(=O)CN1CCN(CC(=O)O)CCN(CC(=O)O)CCN(CC(=O)O)CC1 (some centres unmarked) [[^177Lu]Lu-2, metal not drawn]
